From PubChem BioAssay AID1963982 (Molecular Pharmacology Branch, DTP, NCI, 2024)

Tested on: 313798-341-R-J2-PDC spheroids, viability
Assay: Anticancer human tumor 313798-341-R-J2-PDC patient-derived cervical squamous cell carcinoma cell line growth inhibition [PI3K]
Conditions: spheroids with HUVEC and MSC; for IC50: curve of first compound; for viability, T/C: stronger effect = lower value
Outline: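 We assembled tumor spheroids that included a stromal compartment of HUVEC and MSCs, then exposed them to targeted agents alone and together with PI3K pathway inhibitors. Concentration series descended by half-log from clinically achievable Cmax levels. Viability served as the endpoint.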

[1] = second compound 0.00316 µM, first compound 0.0316 µM
[2] = second compound 0.00316 µM, first compound 0.1 µM
[3] = second compound 0.01 µM, first compound 0.0316 µM
[4] = second compound 0.01 µM, first compound 0.1 µM
[5] = second compound 0.0316 µM, first compound 0.0316 µM
[6] = second compound 0.0316 µM, first compound 0.1 µM
[7] = second compound 0.1 µM, first compound 0.0316 µM
[8] = second compound 0.1 µM, first compound 0.1 µM
[9] = second compound 0.316 µM, first compound 0.0316 µM
[10] = second compound 0.316 µM, first compound 0.1 µM
[11] = second compound 1 µM, first compound 0.0316 µM
[12] = second compound 1 µM, first compound 0.1 µM
[13] = second compound 0.00316 µM, first compound 0.316 µM
[14] = second compound 0.00316 µM, first compound 1 µM
[15] = second compound 0.00316 µM, first compound 3.16 µM
[16] = second compound 0.00316 µM, first compound 10 µM
[17] = second compound 0.01 µM, first compound 0.316 µM
[18] = second compound 0.01 µM, first compound 1 µM
[19] = second compound 0.01 µM, first compound 3.16 µM
[20] = second compound 0.01 µM, first compound 10 µM
[21] = second compound 0.0316 µM, first compound 0.316 µM
[22] = second compound 0.0316 µM, first compound 1 µM
[23] = second compound 0.0316 µM, first compound 3.16 µM
[24] = second compound 0.0316 µM, first compound 10 µM
[25] = second compound 0.1 µM, first compound 0.316 µM
[26] = second compound 0.1 µM, first compound 1 µM
[27] = second compound 0.1 µM, first compound 3.16 µM
[28] = second compound 0.1 µM, first compound 10 µM
[29] = second compound 0.316 µM, first compound 0.316 µM
[30] = second compound 0.316 µM, first compound 1 µM
[31] = second compound 0.316 µM, first compound 3.16 µM
[32] = second compound 0.316 µM, first compound 10 µM
[33] = second compound 1 µM, first compound 0.316 µM
[34] = second compound 1 µM, first compound 1 µM
[35] = second compound 1 µM, first compound 3.16 µM
[36] = second compound 1 µM, first compound 10 µM
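Also: spheroids exposed to compounds for seven days.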
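For viability, T/C in this document: 100% = DMSO vehicle control viability.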

Compound: CC(C)n1nc(-c2ccc3oc(N)nc3c2)c2c(N)ncnc21 + COc1c(OCCCN2CCOCC2)ccc2c3n(c(=NC(=O)c4cnc(N)nc4)nc12)CCN3
- IC50 (second compound 0.00316 µM): 59.1 nM
- IC50 (second compound 0.01 µM): 48.8 nM
- IC50 (second compound 0.0316 µM): 18 nM
- IC50 (second compound 0.1 µM): < 0.316 nM
- IC50 (second compound 0.316 µM): < 0.316 nM
- IC50 (second compound 1 µM): < 0.316 nM
- viability, T/C (second compound 0.00316 µM, first compound 0.000316 µM): 94.2%
- viability, T/C (second compound 0.00316 µM, first compound 0.001 µM): 99%
- viability, T/C (second compound 0.00316 µM, first compound 0.00316 µM): 97.3%
- viability, T/C (second compound 0.00316 µM, first compound 0.01 µM): 84%
- viability, T/C [1]: 62.8%
- viability, T/C [2]: 39.6%
- viability, T/C (second compound 0.01 µM, first compound 0.000316 µM): 98.1%
- viability, T/C (second compound 0.01 µM, first compound 0.001 µM): 83.9%
- viability, T/C (second compound 0.01 µM, first compound 0.00316 µM): 83.3%
- viability, T/C (second compound 0.01 µM, first compound 0.01 µM): 74%
- viability, T/C [3]: 59.6%
- viability, T/C [4]: 35.4%
- viability, T/C (second compound 0.0316 µM, first compound 0.000316 µM): 72.1%
- viability, T/C (second compound 0.0316 µM, first compound 0.001 µM): 72.2%
- viability, T/C (second compound 0.0316 µM, first compound 0.00316 µM): 85.8%
- viability, T/C (second compound 0.0316 µM, first compound 0.01 µM): 52%
- viability, T/C [5]: 44.3%
- viability, T/C [6]: 23.6%
- viability, T/C (second compound 0.1 µM, first compound 0.000316 µM): 41.4%
- viability, T/C (second compound 0.1 µM, first compound 0.001 µM): 39.7%
- viability, T/C (second compound 0.1 µM, first compound 0.00316 µM): 40.2%
- viability, T/C (second compound 0.1 µM, first compound 0.01 µM): 31.8%
- viability, T/C [7]: 23.9%
- viability, T/C [8]: 13.4%
- viability, T/C (second compound 0.316 µM, first compound 0.000316 µM): 17.7%
- viability, T/C (second compound 0.316 µM, first compound 0.001 µM): 17.5%
- viability, T/C (second compound 0.316 µM, first compound 0.00316 µM): 15.3%
- viability, T/C (second compound 0.316 µM, first compound 0.01 µM): 13.8%
- viability, T/C [9]: 14.3%
- viability, T/C [10]: 8.89%
- viability, T/C (second compound 1 µM, first compound 0.000316 µM): 13.2%
- viability, T/C (second compound 1 µM, first compound 0.001 µM): 10.9%
- viability, T/C (second compound 1 µM, first compound 0.00316 µM): 10.3%
- viability, T/C (second compound 1 µM, first compound 0.01 µM): 12.2%
- viability, T/C [11]: 12.9%
- viability, T/C [12]: 8.5%

Compound: CCCS(=O)(=O)Nc1ccc(F)c(C(=O)c2c[nH]c3ncc(-c4ccc(Cl)cc4)cc23)c1F + COc1c(OCCCN2CCOCC2)ccc2c3n(c(=NC(=O)c4cnc(N)nc4)nc12)CCN3
- IC50 (second compound 0.00316 µM): 6100 nM
- IC50 (second compound 0.01 µM): 5990 nM
- IC50 (second compound 0.0316 µM): 5160 nM
- IC50 (second compound 0.1 µM): 110 nM
- IC50 (second compound 0.316 µM): < 31.6 nM
- IC50 (second compound 1 µM): < 31.6 nM
- viability, T/C [1]: 109%
- viability, T/C [2]: 98.6%
- viability, T/C [13]: 99.6%
- viability, T/C [14]: 92.3%
- viability, T/C [15]: 95.5%
- viability, T/C [16]: 15.7%
- viability, T/C [3]: 89.1%
- viability, T/C [4]: 96.2%
- viability, T/C [17]: 103%
- viability, T/C [18]: 98.6%
- viability, T/C [19]: 97.1%
- viability, T/C [20]: 12.5%
- viability, T/C [5]: 68.7%
- viability, T/C [6]: 94.1%
- viability, T/C [21]: 86.5%
- viability, T/C [22]: 83.8%
- viability, T/C [23]: 78.1%
- viability, T/C [24]: 12%
- viability, T/C [7]: 47.9%
- viability, T/C [8]: 54.2%
- viability, T/C [25]: 48.4%
- viability, T/C [26]: 41.4%
- viability, T/C [27]: 33.9%
- viability, T/C [28]: 15.7%
- viability, T/C [9]: 16.7%
- viability, T/C [10]: 18.7%
- viability, T/C [29]: 19.1%
- viability, T/C [30]: 20.5%
- viability, T/C [31]: 22.4%
- viability, T/C [32]: 12.7%
- viability, T/C [11]: 13.2%
- viability, T/C [12]: 12.4%
- viability, T/C [33]: 14.6%
- viability, T/C [34]: 14.3%
- viability, T/C [35]: 19.8%
- viability, T/C [36]: 9.24%

Compound: CNC(=O)c1ccc(N2C(=S)N(c3ccc(C#N)c(C(F)(F)F)c3)C(=O)C2(C)C)cc1F + COc1c(OCCCN2CCOCC2)ccc2c3n(c(=NC(=O)c4cnc(N)nc4)nc12)CCN3
- IC50 (second compound 0.00316 µM): > 10000 nM
- IC50 (second compound 0.01 µM): > 10000 nM
- IC50 (second compound 0.0316 µM): > 10000 nM
- IC50 (second compound 0.1 µM): < 31.6 nM
- IC50 (second compound 0.316 µM): < 31.6 nM
- IC50 (second compound 1 µM): < 31.6 nM
- viability, T/C [1]: 98.3%
- viability, T/C [2]: 117%
- viability, T/C [13]: 102%
- viability, T/C [14]: 112%
- viability, T/C [15]: 99.8%
- viability, T/C [16]: 87.1%
- viability, T/C [3]: 102%
- viability, T/C [4]: 100%
- viability, T/C [17]: 97.3%
- viability, T/C [18]: 115%
- viability, T/C [19]: 94.7%
- viability, T/C [20]: 96.7%
- viability, T/C [5]: 73.3%
- viability, T/C [6]: 79.2%
- viability, T/C [21]: 73.2%
- viability, T/C [22]: 71.3%
- viability, T/C [23]: 74.1%
- viability, T/C [24]: 62.8%
- viability, T/C [7]: 37.3%
- viability, T/C [8]: 42.9%
- viability, T/C [25]: 39.7%
- viability, T/C [26]: 40.8%
- viability, T/C [27]: 34.9%
- viability, T/C [28]: 31.8%
- viability, T/C [9]: 15.5%
- viability, T/C [10]: 16.6%
- viability, T/C [29]: 13.9%
- viability, T/C [30]: 13.4%
- viability, T/C [31]: 14.8%
- viability, T/C [32]: 12.3%
- viability, T/C [11]: 11.8%
- viability, T/C [12]: 9.64%
- viability, T/C [33]: 11.3%
- viability, T/C [34]: 9.53%
- viability, T/C [35]: 9.76%
- viability, T/C [36]: 8.76%
